The values below are quoted from earlier work in publication PMC9096979 (ACS Omega, 2022).

This series has as its target myotoxin II (Bothrops asper, UniProt P24605).

Chain of myotoxin II (P24605 17-137 limits assumed): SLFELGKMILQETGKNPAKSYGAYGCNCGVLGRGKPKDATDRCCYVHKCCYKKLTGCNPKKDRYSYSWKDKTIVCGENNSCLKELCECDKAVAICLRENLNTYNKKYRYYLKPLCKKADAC

For the compound `Cc1ccc(C(=O)Nc2ccc(S(=O)(=O)O)c3cc(S(=O)(=O)O)cc(S(=O)(=O)O)c23)cc1NC(=O)c1cccc(NC(=O)Nc2cccc(C(=O)Nc3cc(C(=O)Nc4ccc(S(=O)(=O)O)c5cc(S(=O)(=O)O)cc(S(=O)(=O)O)c45)ccc3C)c2)c1` [suramin], the “inhibition of myotoxin II, in words” value is on record as “capable of inhibiting myotoxin II”.
